In US8178690B2, “Compounds and methods for inhibiting the interaction of BCL proteins with binding partners” (Infinity Pharmaceuticals, Inc., priority 2006, dated 2012):

Columns and labels:
Bcl-xL = Bcl-xL (Homo sapiens, UniProt Q07817); experiment: Bcl-xL binding affinity analysis (fluorescence polarization binding assay); settings: read-out: BcI-XI (Ki, Bcl-xL binding affinity)
Excerpt: (§1) Bcl-2 and Bcl-xL binding may be determined using a variety of known methods. One such assay is a sensitive and quantitative in vitro binding assay using fluorescence polarization (FP) described by Wang, J.-L.; Zhang, Z-J.; Choksi, S.; Sjam. S.; Lu, Z.; Croce, C. M.; Alnemri, E. S.; Komgold, R.; Huang, Z. Cell permeable Bcl-2 binding peptides: a chemical approach to apoptosis induction in tumor cells. Cancer Res. 2000, 60, 1498-1502).
(§2) Bcl-2 and Bcl-xL binding affinity analysis data is presented below for various compounds of the invention.

Bcl-2 = Bcl-2 (Homo sapiens, UniProt P10415); experiment: Bcl-2 binding affinity analysis (fluorescence polarization binding assay); settings: read-out: BcI2 (Ki, Bcl-2 binding affinity)
Excerpt: as §1, §2

Sequence of Bcl-2 (P10415 whole entry): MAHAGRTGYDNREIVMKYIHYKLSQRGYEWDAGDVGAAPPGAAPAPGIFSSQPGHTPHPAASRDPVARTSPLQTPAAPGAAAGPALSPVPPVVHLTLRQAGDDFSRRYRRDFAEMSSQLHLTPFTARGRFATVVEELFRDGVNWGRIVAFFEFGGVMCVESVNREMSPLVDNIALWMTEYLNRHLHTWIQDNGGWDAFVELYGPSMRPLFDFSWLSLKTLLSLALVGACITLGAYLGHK
Sequence of Bcl-xL (Q07817 whole entry): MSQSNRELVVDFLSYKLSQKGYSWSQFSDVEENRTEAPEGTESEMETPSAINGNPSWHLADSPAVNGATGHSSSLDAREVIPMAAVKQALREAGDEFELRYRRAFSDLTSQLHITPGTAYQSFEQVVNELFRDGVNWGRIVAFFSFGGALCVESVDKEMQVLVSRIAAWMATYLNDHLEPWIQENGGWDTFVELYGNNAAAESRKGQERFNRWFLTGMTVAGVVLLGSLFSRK

Structure (SMILES) | Ki (Bcl-xL) | Ki (Bcl-2)
COc1c(CN2O[C@@H](CO)[C@@H]([C@H](C)O)[C@H]2C(=O)N[C@H]2C[C@H]3CC([C@@H]2C)C3(C)C)ccc(Cl)c1-c1cc(C(=O)N[C@@H](CC(C)C)CN(C)C)cc(N(C)C)c1 [Compound 183] | 1000 to 5000 nM | 1 to 5 nM
COc1c(CN2O[C@@H](CO)[C@@H]([C@H](C)O)[C@H]2C(=O)N[C@H]2C[C@H]3C[C@@H]([C@@H]2C)C3(C)C)cccc1-c1cc(C(=O)N[C@H](CN2CCCC2)[C@H](O)c2ccccc2)cc(N(C)C)c1 [Compound 160] | < 1000 nM | < 1 nM
C[C@@H]1[C@@H](NC(=O)[C@@H]2[C@H]([C@H](C)O)[C@H](CO)ON2Cc2cccc(-c3cc(C(=O)N[C@H](CN(C)C)CC(C)(C)C)cc(N(C)C)c3)c2OCC2CC2)C[C@H]2C[C@@H]1C2(C)C [Compound 33] | < 1000 nM | < 1 nM
CNC(=O)c1cc(-c2cccc(CN3O[C@@H](CN)[C@@H]([C@H](C)OC(=O)NCCN(C)C)[C@H]3C(=O)N[C@H]3C[C@H]4C[C@@H]([C@@H]3C)C4(C)C)c2OC)cc(N(C)C)c1 [Compound 92] | > 10000 nM | > 9 nM
COc1c(CN2O[C@@H](CO)[C@@H]([C@H](C)O)[C@H]2C(=O)N[C@H]2C[C@H]3C[C@@H]([C@@H]2C)C3(C)C)cccc1-c1cc(C(C)=O)cc(C(=O)N[C@@H](Cc2ccccc2)CN(C)C)c1 [Compound 299] | < 1000 nM | < 1 nM
COC[C@@H](Cc1ccccc1)NC(=O)c1cc(-c2cccc(CN3O[C@@H](CO)[C@@H]([C@H](C)O)[C@H]3C(=O)N[C@H]3C[C@H]4C[C@@H]([C@@H]3C)C4(C)C)c2OC)cc(N(C)C)c1 [Compound 12] | 5000 to 10000 nM | 5 to 9 nM
COc1c(CN2O[C@@H](CN)[C@@H]([C@H](C)O)[C@H]2C(=O)N[C@H]2C[C@H]3C[C@@H]([C@@H]2C)C3(C)C)cccc1-c1cc(C(=O)NCCc2ccccc2)cc(N(C)C)c1 [Compound 62] | 5000 to 10000 nM | < 1 nM
COc1c(CN2O[C@@H](CO)[C@@H]([C@H](C)O)[C@H]2C(=O)N[C@H]2C[C@H]3C[C@@H]([C@@H]2C)C3(C)C)cccc1-c1cc(C(=O)N[C@@H](Cc2cccc(N)c2)CN(C)C)cc(N(C)C)c1 [Compound 206] | < 1000 nM | < 1 nM
CCOc1c(CN2O[C@@H](CO)[C@@H]([C@H](C)O)[C@H]2C(=O)N[C@H]2C[C@H]3C[C@@H]([C@@H]2C)C3(C)C)cccc1-c1cc(C(=O)N[C@H](Cc2ccccc2)CN(C)C)cc(N(C)C)c1 [Compound 23] | < 1000 nM | < 1 nM
COc1c(CN2O[C@@H](CO)[C@@H]([C@H](C)O)[C@H]2C(=O)N[C@H]2C[C@H]3C[C@@H]([C@@H]2C)C3(C)C)cccc1-c1cc(C(=O)N[C@H](CN(C)C)[C@H](OC)c2ccccc2)cc(N(C)C)c1 [Compound 152] | < 1000 nM | < 1 nM
COc1c(CN2O[C@@H](CO)[C@@H]([C@H](C)O)[C@H]2C(=O)N[C@H]2C[C@H]3C[C@@H]([C@@H]2C)C3(C)C)cccc1-c1cc(C(=O)N[C@@H](Cc2ccccc2)CN(C)C)cc(N(C)CCO)c1 [Compound 285] | < 1000 nM | < 1 nM
COc1c(CN2O[C@@H](CNC(=O)CCC(=O)O)[C@@H]([C@H](C)O)[C@H]2C(=O)N[C@H]2C[C@H]3C[C@@H]([C@@H]2C)C3(C)C)cccc1-c1cc(C(=O)N[C@H](CN(C)C)CC(C)(C)C)cc(N(C)C)c1 [Compound 114] | < 1000 nM | < 1 nM
CC(C)C[C@H](CN(C)C)NC(=O)c1cc(-c2cccc(CN3O[C@@H](CO)[C@@H]([C@H](C)O)[C@H]3C(=O)N[C@H]3C[C@H]4C[C@@H]([C@@H]3C)C4(C)C)c2OCC2CC2)cc(N(C)C)c1 [Compound 34] | < 1000 nM | < 1 nM
COc1c(CN2O[C@@H](CO)[C@@H]([C@H](C)O)[C@H]2C(=O)N[C@H]2C[C@H]3C[C@@H]([C@@H]2C)C3(C)C)cccc1-c1cc(C(=O)N[C@@H](Cc2ccccc2)CN(C)C)cc(N2CCOCC2)c1 [Compound 240] | 1000 to 5000 nM | < 1 nM
COc1c(CN2O[C@@H](CO)[C@@H]([C@H](C)O)[C@H]2C(=O)N[C@H]2C[C@H]3C[C@@H]([C@@H]2C)C3(C)C)cccc1-c1cc(C(=O)N[C@H](CN(C)C)CC(C)(C)C)c(Br)c(N(C)C)c1 [Compound 257] | < 1000 nM | < 1 nM
CCN(CC)c1cc(C(=O)N[C@@H](CC(C)C)CN(C)C)cc(-c2cccc(CN3O[C@@H](CO)[C@@H]([C@H](C)O)[C@H]3C(=O)N[C@H]3C[C@H]4C[C@@H]([C@@H]3C)C4(C)C)c2OC)c1 [Compound 267] | 1000 to 5000 nM | < 1 nM
COc1c(CN2O[C@@H](CO)[C@@H]([C@H](C)O)[C@H]2C(=O)N[C@H]2C[C@H]3C[C@@H]([C@@H]2C)C3(C)C)cccc1-c1cc2c(c(C(=O)N[C@H](CN(C)C)CC(C)(C)C)c1)OCO2 [Compound 202] | < 1000 nM | < 1 nM
COc1c(CN2O[C@@H](CN)[C@@H]([C@H](C)O)[C@H]2C(=O)N[C@H]2C[C@H]3C[C@@H]([C@@H]2C)C3(C)C)cccc1-c1cc(C(=O)O)cc(N(C)C)c1 [Compound 71] | 1000 to 5000 nM | > 9 nM
COc1c(CN2O[C@@H](CO)[C@@H]([C@H](C)O)[C@H]2C(=O)N[C@H]2C[C@H]3C[C@@H]([C@@H]2C)C3(C)C)cccc1-c1cc(C(=O)N[C@@H](Cc2cccs2)CN(C)C)cc(N(C)C)c1 [Compound 251] | < 1000 nM | < 1 nM

The remaining lines, values ahead:

Ki (Bcl-xL) | Ki (Bcl-2) | Structure (SMILES)
< 1000 nM | < 1 nM | CCOc1c(CN2O[C@@H](CO)[C@@H]([C@H](C)O)[C@H]2C(=O)N[C@H]2C[C@H]3C[C@@H]([C@@H]2C)C3(C)C)cccc1-c1cc(C(=O)N[C@@H](CC(C)C)CN(C)C)cc(N(C)C)c1 [Compound 35]
< 1000 nM | < 1 nM | COc1c(CN2O[C@@H](CO)[C@@H]([C@H](C)O)[C@H]2C(=O)N[C@H]2C[C@H]3C[C@@H]([C@@H]2C)C3(C)C)cccc1-c1cc(C(=O)N[C@H](Cc2ccccc2)CN(C)C)cc(N(C)C)c1 [Compound 113]
> 10000 nM | > 9 nM | CNC(=O)c1cc(-c2cccc(CN3O[C@@H](CNCc4ccc(C(=O)O)cc4)[C@@H]([C@H](C)O)[C@H]3C(=O)N[C@H]3C[C@H]4C[C@@H]([C@@H]3C)C4(C)C)c2OC)cc(N(C)C)c1 [Compound 81]
< 1000 nM | < 1 nM | COc1c(CN2O[C@@H](CNC(=O)CCN(C)C)[C@@H]([C@H](C)O)[C@H]2C(=O)N[C@H]2C[C@H]3C[C@@H]([C@@H]2C)C3(C)C)cccc1-c1cc(C(=O)N[C@H](CN(C)C)CC(C)(C)C)cc(N(C)C)c1 [Compound 115]
5000 to 10000 nM | < 1 nM | COc1c(CN2O[C@@H](CN)[C@@H]([C@H](C)O)[C@H]2C(=O)N[C@H]2C[C@H]3C[C@@H]([C@@H]2C)C3(C)C)cccc1-c1cc(C(=O)N(C)OC)cc(N(C)C)c1 [Compound 66]
< 1000 nM | < 1 nM | COc1c(CN2O[C@@H](CN)[C@@H]([C@H](C)O)[C@H]2C(=O)N[C@H]2C[C@H]3C[C@@H]([C@@H]2C)C3(C)C)cccc1-c1cc(C(=O)N[C@H](CC(C)C)CN(C)C)cc(N(C)C)c1 [Compound 68]
< 1000 nM | < 1 nM | CNC(=O)CN(C)c1cc(C(=O)N[C@@H](Cc2ccccc2)CN(C)C)cc(-c2cccc(CN3O[C@@H](CO)[C@@H]([C@H](C)O)[C@H]3C(=O)N[C@H]3C[C@H]4C[C@@H]([C@@H]3C)C4(C)C)c2OC)c1 [Compound 309]
5000 to 10000 nM | > 9 nM | COc1c(CN2O[C@@H](CO)[C@@H]([C@H](C)O)[C@H]2C(=O)N[C@H]2C[C@H]3C[C@@H]([C@@H]2C)C3(C)C)cc(Cl)cc1-c1cc(C(=O)NCCc2ccccc2)cc(N(C)C)c1 [Compound 321]
1000 to 5000 nM | 5 to 9 nM | CNC(=O)c1cc(-c2cccc(CN3O[C@@H](CNC(C)=O)[C@@H]([C@H](C)O)[C@H]3C(=O)N[C@H]3C[C@H]4C[C@@H]([C@@H]3C)C4(C)C)c2OC)cc(N(C)C)c1 [Compound 77]
> 10000 nM | < 1 nM | COC(=O)[C@H](Cc1ccccc1)NC(=O)c1cc(-c2cccc(CN3O[C@@H](CN)[C@@H]([C@H](C)O)[C@H]3C(=O)N[C@H]3C[C@H]4C[C@@H]([C@@H]3C)C4(C)C)c2OC)cc(N(C)C)c1 [Compound 65]
5000 to 10000 nM | 5 to 9 nM | CNC(=O)c1cc(-c2cccc(CN3O[C@@H](CNCC(C)C)[C@@H]([C@H](C)O)[C@H]3C(=O)N[C@H]3C[C@H]4C[C@@H]([C@@H]3C)C4(C)C)c2OC)cc(N(C)C)c1 [Compound 95]
< 1000 nM | < 1 nM | COc1c(CN2O[C@@H](CNC(C)=O)[C@@H]([C@H](C)O)[C@H]2C(=O)N[C@H]2C[C@H]3C[C@@H]([C@@H]2C)C3(C)C)cccc1-c1cc(C(=O)N[C@H](CN(C)C)CC(C)(C)C)cc(N(C)C)c1 [Compound 73]
> 10000 nM | 1 to 5 nM | C[C@@H]1[C@@H](NC(=O)[C@@H]2[C@H]([C@H](C)O)[C@H](CN)ON2Cc2cccc(-c3cc(C(=O)NCCN(C)C)cc(N(C)C)c3)c2F)C[C@H]2C[C@@H]1C2(C)C [Compound 53]
1000 to 5000 nM | 5 to 9 nM | COc1c(CN2O[C@@H](CO)[C@@H]([C@H](C)O)[C@H]2C(=O)N[C@H]2C[C@H]3C[C@@H]([C@@H]2C)C3(C)C)cccc1-c1cc(NC(C)=O)cc(C(=O)N[C@@H](CC(C)C)CN(C)C)c1 [Compound 262]
1000 to 5000 nM | < 1 nM | C[C@@H]1[C@@H](NC(=O)[C@@H]2[C@H]([C@H](C)O)[C@H](CO)ON2Cc2cccc(-c3cc(C(=O)N[C@@H](Cc4ccccc4)CN(C)C)cc(N(C)C)c3)c2OCCN(C)C)C[C@H]2C[C@@H]1C2(C)C [Compound 100]
